Paper PMC11808136, “Screening and identification of host signaling pathways for alleviating influenza-induced production of pro-inflammatory cytokines, IP-10, IL-8, and MCP-1, using a U937 cell-based influenza model” (Frontiers in Microbiology, 2025)
Like-named read-outs stand apart in the source and are kept apart here.

Assays:
[1] = test system: IL-8 production in influenza virus-infected U937 cells (H1N1); assay: cells; format: cell-based, Human; conditions: for EC50: read-out: EC50 IL-8
[2] = test system: influenza virus infection; set-up: method as in Florence et al., 2018; Chen et al., 2019; conditions: without compromising viral titers; ref Florence et al., 2018; Chen et al., 2019; cited from earlier work
in vitro = conditions: human
[3] = test system: IP-10 production in influenza virus-infected U937 cells (H1N1); assay: cells; format: cell-based; conditions: for EC50: read-out: EC50 IP-10
[4] = test system: MCP-1 production in influenza virus-infected U937 cells (H1N1); assay: cells; format: cell-based; conditions: for EC50: read-out: EC50 MCP-1; for IC50: read-out: IC50 MCP-1
[5] = test system: phosphorylation of p38 (p-p38); assay: Western blot of phosphorylated p38 in influenza-infected U937 cells; format: cell-based, Human; conditions: for IC50: Homo sapiens, U-937, read-out: IC50 p-p38
Method: (§1) Figure 6 TKIs repress cytokine production by suppressing the p38 pathway. […] Cells were lysed 24 h post-infection, and the levels of phosphorylated p38 and ERK (p-p38 and p-ERK) and total p38 and ERK were assessed by western blot. A quantification of phosphorylated p38 levels for each drug treatment was included in the right panel of each figure.
(§2) Cells were homogenized in RIPA lysis buffer containing a 1% protease inhibitor cocktail (Roche) to extract total protein. Equal amounts of protein homogenates were separated by SDS-PAGE (Bio-Rad) and transferred onto polyvinylidene difluoride membranes (pore size […]; Bio-Rad). The membranes were then blotted with monoclonal antibodies against GAPDH (1:1000, ZSGB-BIO), p38, phosphor-p38, ERK, phospho-ERK, STAT1, phosphor-STAT1 (1:1000; Cell Signaling Technology), STAT3, and phosphor-STAT3 (1:1000; Cell Signaling Technology), respectively. Protein levels were detected with horseradish peroxidase-tagged secondary antibodies and enhanced chemiluminescence western blot reagents (Advansta), followed by visualization using an enhanced chemiluminescence system (AlphaEase FluorChem System, Alpha Innotech Corp.). Bands were quantified using ImageJ (Ver. 1.46; NIH, Bethesda, MD).

[6] = test system: STAT1 phosphorylation (p-STAT1); format: cell-based, Human
[7] = test system: ERK phosphorylation (p-ERK); assay: Western blot of phosphorylated ERK in influenza-infected U937 cells; format: cell-based, Human; conditions: 24 h post-infection, western blot
Method: Figure 5 Raf/MEK/ERK and p38 signal pathways are involved in the regulation of cytokines in U937 cells. (A–C) Determination of inhibition rates on IL-8, IP-10, and MCP-1 by each compound in the MAPK group and the distribution of targets between subgroups. U937 cells were infected with influenza A/PuertoRico/8/1934 virus (MOI = 0.1) in the presence of 10 μM of each inhibitor and then incubated at 37°C for 48 h. The distribution of the targets of all the inhibitors in the MAPK group was then analyzed and categorized into subgroups. […] The supernatants were harvested 48 h post-infection, and the levels of IL-8, MCP-1, and IP-10 were measured by AlphaLISA. (E) The cells were treated as in (C) except being lysed 24 h post-infection, and the levels of phosphorylated STAT1, p38, ERK (p-STAT1, p-p38, p-ERK), total STAT1, p38, ERK, and viral protein HA were assessed by western blot. (F) A quantitative analysis of the relative levels of the phosphorylated STAT1, p38, ERK (p-STAT1, p-p38, p-ERK) in (E). The data are representative of at least three independent experiments. n.s. no significance; *p < 0.05; **p < 0.01; ***p < 0.001.
as §1
as §2, with “The membranes were then blotted with monoclonal antibodies against GAPDH (1:1000, ZSGB-BIO), p38, phosphor-p38, ERK, phospho-ERK, STAT1, phosphor-STAT1 (1:1000; Cell Signaling Technology), STAT3, and phosphor-STAT3 (1:1000; Cell Signaling Technology), respectively.” left out

[8] = test system: IL-8 production in influenza virus-infected U937 cells (H3N2); assay: cells; format: cell-based, Human
[9] = test system: IP-10 production in influenza virus-infected U937 cells (H3N2); assay: cells; format: cell-based, Human
[10] = test system: MCP-1 production in influenza virus-infected U937 cells (H3N2); assay: cells; format: cell-based, Human
[11] = test system: IL-8 production in influenza virus-infected U937 cells (H7N8); assay: cells; format: cell-based, Human
[12] = test system: IP-10 production in influenza virus-infected U937 cells (H7N8); assay: cells; format: cell-based, Human
[13] = test system: MCP-1 production in influenza virus-infected U937 cells (H7N8); assay: cells; format: cell-based, Human
JAK2 = biological target: T1, JAK2 (Homo sapiens, UniProt O60674); assay: Cell-free kinase activity assay, JAK2; format: biochemical; conditions: cell-free kinase assay
T1 construct: purchased KinaseProfiler (Eurofin, Brussels, Belgium)
T1 sequence (O60674 whole entry): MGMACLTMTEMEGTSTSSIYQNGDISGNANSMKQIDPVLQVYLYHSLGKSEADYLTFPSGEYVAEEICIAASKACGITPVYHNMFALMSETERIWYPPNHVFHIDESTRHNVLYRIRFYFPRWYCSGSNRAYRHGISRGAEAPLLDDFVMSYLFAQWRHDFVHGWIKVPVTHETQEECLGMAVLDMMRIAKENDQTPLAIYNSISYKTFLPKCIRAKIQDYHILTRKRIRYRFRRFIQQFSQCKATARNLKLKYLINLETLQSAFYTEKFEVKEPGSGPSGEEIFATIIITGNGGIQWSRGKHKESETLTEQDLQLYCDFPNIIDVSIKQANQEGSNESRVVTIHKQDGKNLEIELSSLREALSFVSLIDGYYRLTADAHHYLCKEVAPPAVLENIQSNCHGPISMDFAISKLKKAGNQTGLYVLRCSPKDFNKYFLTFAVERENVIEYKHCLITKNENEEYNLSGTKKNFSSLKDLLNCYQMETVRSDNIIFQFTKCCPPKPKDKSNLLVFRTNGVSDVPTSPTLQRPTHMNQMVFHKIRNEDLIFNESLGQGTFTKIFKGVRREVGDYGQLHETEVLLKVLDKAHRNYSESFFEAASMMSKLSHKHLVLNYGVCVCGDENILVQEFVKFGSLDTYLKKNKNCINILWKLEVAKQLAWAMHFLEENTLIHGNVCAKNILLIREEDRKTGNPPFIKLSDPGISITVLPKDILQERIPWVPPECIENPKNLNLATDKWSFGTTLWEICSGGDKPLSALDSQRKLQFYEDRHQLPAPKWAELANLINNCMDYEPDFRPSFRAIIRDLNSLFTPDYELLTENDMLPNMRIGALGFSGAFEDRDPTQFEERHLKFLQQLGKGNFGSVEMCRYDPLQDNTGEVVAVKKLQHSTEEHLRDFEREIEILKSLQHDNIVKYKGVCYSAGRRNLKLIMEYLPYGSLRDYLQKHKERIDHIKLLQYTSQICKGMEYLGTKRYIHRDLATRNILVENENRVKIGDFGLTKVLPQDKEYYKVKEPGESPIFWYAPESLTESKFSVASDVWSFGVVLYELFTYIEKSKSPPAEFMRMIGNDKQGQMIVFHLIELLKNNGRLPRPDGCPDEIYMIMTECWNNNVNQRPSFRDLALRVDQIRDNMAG

[14] = test system: STAT3 phosphorylation (p-STAT3); assay: Western blot of phosphorylated STAT3 in influenza-infected U937 cells; format: cell-based, Human; conditions: 1 μM ponatinib, 24 h
Method: Figure 3 JAK is essential for regulating the production of pro-inflammatory cytokines induced by influenza infection in U937 cells. Inhibition rates on IL-8 (A), IP-10 (B), and MCP-1 (C) by each compound in the PTK group are categorized based on targets. […] The cells were then lysed after 24 h incubation at 37°C, and the levels of phosphorylated STAT1 (p-STAT1), total STAT1, phosphorylated STAT3 (p-STAT3), and total STAT3 were assessed by western blot.
as §2

JAK1 = JAK1 (Homo sapiens, UniProt P23458); assay: Cell-free kinase activity assay, JAK1; conditions: cell-free kinase assay
Chain of JAK1 (P23458 whole entry): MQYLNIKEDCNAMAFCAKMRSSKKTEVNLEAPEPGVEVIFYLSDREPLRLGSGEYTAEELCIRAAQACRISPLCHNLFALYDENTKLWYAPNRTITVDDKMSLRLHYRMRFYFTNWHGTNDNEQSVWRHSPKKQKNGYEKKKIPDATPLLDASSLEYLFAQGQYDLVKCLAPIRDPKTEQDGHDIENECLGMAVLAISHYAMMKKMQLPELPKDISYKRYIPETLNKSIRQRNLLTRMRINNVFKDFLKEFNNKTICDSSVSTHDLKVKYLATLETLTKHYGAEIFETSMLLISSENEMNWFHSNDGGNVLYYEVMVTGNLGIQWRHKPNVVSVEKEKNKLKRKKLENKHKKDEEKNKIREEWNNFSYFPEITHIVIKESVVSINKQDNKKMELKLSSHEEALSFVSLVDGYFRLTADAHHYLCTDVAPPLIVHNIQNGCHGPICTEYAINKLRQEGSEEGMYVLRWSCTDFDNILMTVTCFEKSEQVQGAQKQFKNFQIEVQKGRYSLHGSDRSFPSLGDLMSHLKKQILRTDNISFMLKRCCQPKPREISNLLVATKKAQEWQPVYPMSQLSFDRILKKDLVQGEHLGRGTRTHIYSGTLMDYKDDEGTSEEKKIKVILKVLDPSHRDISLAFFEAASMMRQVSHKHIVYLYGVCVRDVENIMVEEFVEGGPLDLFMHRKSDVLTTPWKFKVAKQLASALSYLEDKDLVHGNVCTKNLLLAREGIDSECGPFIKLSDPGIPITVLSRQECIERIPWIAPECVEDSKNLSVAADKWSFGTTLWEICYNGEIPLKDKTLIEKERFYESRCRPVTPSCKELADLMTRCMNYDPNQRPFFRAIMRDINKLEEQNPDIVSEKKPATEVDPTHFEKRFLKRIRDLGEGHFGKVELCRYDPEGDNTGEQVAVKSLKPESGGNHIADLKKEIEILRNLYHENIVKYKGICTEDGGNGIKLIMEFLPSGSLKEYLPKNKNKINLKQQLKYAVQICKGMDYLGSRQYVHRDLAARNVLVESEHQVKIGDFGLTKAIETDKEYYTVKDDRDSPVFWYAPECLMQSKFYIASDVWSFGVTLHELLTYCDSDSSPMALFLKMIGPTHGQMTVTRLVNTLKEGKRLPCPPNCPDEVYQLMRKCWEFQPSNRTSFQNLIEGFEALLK

[15] = Homo sapiens, U-937, secondary screen, Supplemental Table 1
[16] = secondary screen, Supplemental Table 1

C=CC(=O)N1CCC[C@@H](n2nc(-c3ccc(Oc4ccccc4)cc3)c3c(N)ncnc32)C1 [Ibrutinib (PCI-32765), Ibrutinib]
EC50 [1, 15]: 1220 nM | protection of mice from lethal influenza infection [2]: protecting mice from lethal influenza infection | CC50 (in vitro; CC50, secondary screen, Supplemental Table 1): > 100000 nM

O=C(NOC[C@H](O)CO)c1ccc(F)c(F)c1Nc1ccc(I)cc1F [PD0325901]
secretion of IL-8 [1]: inhibited | IC50 ([1]; Homo sapiens, U-937): < 20 nM | EC50 [1, 15]: < 5 nM | EC50 [3, 15]: 690 nM | secretion of IP-10 ([3]; at high concentrations, 48 h post-infection): inhibit | EC50 [4, 15]: 100 nM | IC50 ([4]; Homo sapiens, U-937): < 20 nM | secretion of MCP-1 ([4]; different concentrations of PD0325901, 48 h post-infection): inhibited | phosphorylation of p38 ([5]; 24 h post-infection, western blot, cellular model): suppress | IC50 [5]: 10 nM | phosphorylation of STAT1 proteins [6]: inhibit | phosphorylation level of ERK [7]: decreased | CC50 (in vitro): > 100000 nM

Cc1ccc(C(=O)Nc2ccc(CN3CCN(C)CC3)c(C(F)(F)F)c2)cc1C#Cc1cnc2cccnn12 [Ponatinib]
IC50 ([1]; Homo sapiens, U-937): 300 nM | EC50 [1, 15]: < 5 nM | EC50 ([1]; Homo sapiens, U-937): 294 nM | EC50 [3, 15]: 60 nM | EC50 ([3]; Homo sapiens, U-937): 270 nM | IC50 ([3]; Homo sapiens, U-937, read-out: IC50 IP-10): 250 nM | EC50 [4, 15]: < 5 nM | EC50 ([4]; Homo sapiens, U-937): 385 nM | IC50 ([4]; Homo sapiens, U-937): 400 nM | EC50 ([8]; Homo sapiens, U-937): 714 nM | EC50 ([9]; Homo sapiens, U-937): 59 nM | EC50 ([10]; Homo sapiens, U-937): 625 nM | EC50 ([11]; Homo sapiens, U-937, read-out: EC50 IL-8): 833 nM | EC50 ([12]; Homo sapiens, U-937, read-out: EC50 IP-10): 833 nM | EC50 ([13]; Homo sapiens, U-937, read-out: EC50 MCP-1): 345 nM | JAK2 activity (JAK2): weaker effect | IC50 [5]: 180 nM | STAT1 phosphorylation levels [6]: significantly reduced | phosphorylation level of ERK [7]: promoted | STAT3 phosphorylation [14]: limited inhibition | maximum non-toxic concentration (U937 cells; human): 1 µM | protection of mice from lethal influenza infection [2]: protecting mice from lethal influenza infection | JAK1 activity (JAK1): directly inhibit

COc1cc(Nc2ncc(F)c(Nc3ccc4c(n3)NC(=O)C(C)(C)O4)n2)cc(OC)c1OC [R406]
EC50 [1]: 130 nM | EC50 [1, 16]: 820 nM | EC50 ([3]; U937 cells infected with H1N1): 431 nM | EC50 [3, 16]: 3500 nM | EC50 ([4]; U937 cells infected with H1N1): 240 nM | EC50 [4, 16]: 270 nM | EC50 [8]: 690 nM | EC50 [9]: 5 nM | EC50 [10]: 62 nM | EC50 ([11]; read-out: EC50 IL-8): 88 nM | EC50 ([12]; read-out: EC50 IP-10): 90 nM | EC50 ([13]; read-out: EC50 MCP-1): 35 nM | CC50 (U937 cells): > 100000 nM | CC50 (U937 cells; U937 cells, Table 1 section H1N1): > 100000 nM | CC50 (U937 cells; U937 cells, Table 1 section H3N2): > 100000 nM | CC50 (U937 cells; [16]): > 100000 nM
